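Step 1: Grow cells in 96-well plates. Step 2: Expose to compound for 48 hours at 5 concentrations. Step 3: Interpolate endpoints linearly; if unreached, use highest concentration. TGI marks complete inhibition of growth.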
Experiments:
Assay in all cases: NCI tumour cell line growth inhibition, 48 h
786-0 renal = tested on: 786-0 renal
ACHN renal = tested on: ACHN renal
HT29 colon = tested on: HT29 colon
LOX IMVI melanoma = tested on: LOX IMVI melanoma
MCF7 breast = tested on: MCF7 breast
NCI-H522 lung = tested on: NCI-H522 lung
OVCAR-8 ovarian = tested on: OVCAR-8 ovarian
RPMI-8226 leukemia = tested on: RPMI-8226 leukemia
SW-620 colon = tested on: SW-620 colon
U251 CNS = tested on: U251 CNS

SMILES	TGI (786-0 renal)	TGI (ACHN renal)	TGI (HT29 colon)	TGI (LOX IMVI melanoma)	TGI (MCF7 breast)	TGI (NCI-H522 lung)	TGI (OVCAR-8 ovarian)	TGI (RPMI-8226 leukemia)	TGI (SW-620 colon)	TGI (U251 CNS)
CCCCn1cc(C(=O)O)c(=O)c2c3sccc3ccc21	> 100 µM	> 100 µM	> 100 µM	> 100 µM	> 100 µM	> 100 µM	> 100 µM	> 100 µM	> 100 µM	> 100 µM
COC(=O)C12CC(C3CC31)C1CC12 (centres undefined)	> 100 µM	> 100 µM	> 100 µM	> 100 µM	–	–	> 100 µM	> 100 µM	> 100 µM	> 100 µM
Cn1c(N)c(/C=N/NC(=O)CC#N)c(=O)n(C)c1=O	> 100 µM	> 100 µM	> 100 µM	> 100 µM	> 100 µM	> 100 µM	> 100 µM	> 100 µM	> 100 µM	> 100 µM
O=C1c2ccccc2S(=O)(=O)c2ccccc21	> 100 µM	> 100 µM	> 100 µM	> 100 µM	> 100 µM	> 100 µM	> 100 µM	> 100 µM	> 100 µM	> 100 µM
Cc1ncc([N+](=O)[O-])n1CCN=[N+]=[N-]	> 100 µM	> 100 µM	> 100 µM	–	> 100 µM	> 100 µM	> 100 µM	> 100 µM	> 100 µM	> 100 µM
Cc1cccc(NC(=O)CC(=O)N2N=C(N3c4ccccc4Sc4ccccc43)CC2c2ccccc2)c1 (centres undefined)	> 100 µM	> 100 µM	> 100 µM	–	> 100 µM	> 100 µM	> 100 µM	> 100 µM	> 100 µM	> 100 µM
CCOC(=O)CCC1(C(=O)OC)CCCC1=O (centres undefined)	> 100 µM	> 100 µM	> 100 µM	> 100 µM	–	> 100 µM	> 100 µM	> 100 µM	> 100 µM	> 100 µM
C=C(CCOC)CCC1CCCCC(=C)C1=O (centres undefined)	> 100 µM	> 100 µM	> 100 µM	> 100 µM	> 100 µM	> 100 µM	> 100 µM	> 100 µM	> 100 µM	> 100 µM
Cc1ccc(Nc2nc(=O)[nH]c(=O)[nH]2)cc1N	> 100 µM	> 100 µM	> 100 µM	> 100 µM	> 100 µM	> 100 µM	> 100 µM	> 100 µM	> 100 µM	> 100 µM
COc1cc(C(=O)Nc2nnc(S(N)(=O)=O)s2)cc(OC)c1OC	> 100 µM	> 100 µM	–	> 100 µM	> 100 µM	> 100 µM	> 100 µM	> 100 µM	> 100 µM	> 100 µM
O=c1c(Cc2ccc(Cl)cc2)nnc2sc(-c3ccc([N+](=O)[O-])cc3)nn12	> 100 µM	87.3 µM	> 100 µM	> 100 µM	53 µM	–	> 100 µM	89.9 µM	80.8 µM	> 100 µM
CN(C)c1ccc(/C=C(\NC(=O)c2ccccc2)C(=O)Nc2ccccc2C(=O)NN2C(=O)CSC2c2ccc(N(C)C)cc2)cc1 (centres undefined)	> 100 µM	> 100 µM	> 100 µM	> 100 µM	> 100 µM	> 100 µM	> 100 µM	> 100 µM	> 100 µM	> 100 µM
c1ccc2c(c1)CCCc1cc3ccccc3nc1-2	> 100 µM	> 100 µM	> 100 µM	–	–	> 100 µM	> 100 µM	99.2 µM	> 100 µM	> 100 µM
c1ccc(C2=NN3CN(N2)c2ccccc2OCCCOc2ccccc23)cc1	> 100 µM	> 100 µM	> 100 µM	> 100 µM	–	> 100 µM	> 100 µM	> 100 µM	> 100 µM	> 100 µM
CCCCCCCCCCCCOC1C(COCCN2CCCC2)OC2OC(C)(C)OC21 (centres undefined)	3.08 µM	11.2 µM	2.98 µM	2.77 µM	3.1 µM	2.53 µM	3.03 µM	12.1 µM	–	3.12 µM
CC1=NN(C(=O)CC(=O)Nc2cccc(Cl)c2)C(=O)C1N=Nc1ccc(S(N)(=O)=O)cc1 (centres undefined)	> 100 µM	> 100 µM	> 100 µM	> 100 µM	–	> 100 µM	> 100 µM	> 100 µM	> 100 µM	> 100 µM
CNc1ccc2nc(-c3ccc(OC(=O)N(C)C)cc3)cn2c1	27.6 µM	37.3 µM	34 µM	31.6 µM	43.6 µM	28.8 µM	30.3 µM	–	51.4 µM	28.8 µM
CCCCN(CCCC)C(=NCc1ccccc1)NC#N	47 µM	65.9 µM	30.1 µM	30.4 µM	–	18.4 µM	> 100 µM	79.3 µM	31 µM	35.7 µM
C/C(=N\N(C)C)C(CN(C)C)C(c1ccccc1)c1c(O)c2ccccc2oc1=O (centres undefined)	> 100 µM	> 100 µM	> 100 µM	> 100 µM	–	> 100 µM	> 100 µM	> 100 µM	> 100 µM	> 100 µM
COc1ccc(Cn2nc(OCc3ccccn3)c3cc([N+](=O)[O-])ccc32)cc1	> 100 µM	> 100 µM	> 100 µM	> 100 µM	> 100 µM	> 100 µM	> 100 µM	> 100 µM	> 100 µM	–
O=S1(=O)NNC(=NCc2ccc(F)cc2)c2ccccc21	> 100 µM	> 100 µM	> 100 µM	> 100 µM	> 100 µM	–	> 100 µM	> 78.8 µM	> 100 µM	> 83.4 µM
Cc1cnc(Cl)nc1C(C#N)c1nc2ccccc2n1C (centres undefined)	> 100 µM	> 100 µM	> 100 µM	> 100 µM	–	43.4 µM	> 100 µM	> 100 µM	> 100 µM	45.5 µM
N#Cc1c(=O)c2cccnc2n2c1[nH]c1ccccc12	> 100 µM	> 100 µM	> 100 µM	> 100 µM	> 100 µM	–	> 100 µM	> 100 µM	> 100 µM	> 100 µM
Cc1ccc2ccccc2c1CC1S(=O)(=O)OCCOS1(=O)=O	30.3 µM	28.8 µM	27.1 µM	22.2 µM	23.1 µM	–	37.1 µM	32.3 µM	–	24.7 µM

SMILES	TGI (786-0 renal)	TGI (ACHN renal)	TGI (HT29 colon)	TGI (LOX IMVI melanoma)	TGI (MCF7 breast)	TGI (NCI-H522 lung)	TGI (OVCAR-8 ovarian)	TGI (RPMI-8226 leukemia)	TGI (SW-620 colon)	TGI (U251 CNS)
CCCCCCCCCCCCC(=O)NCC(=O)NC(Cc1ccccc1)C(=O)Oc1ccc([N+](=O)[O-])cc1 (centres undefined)	> 100 µM	> 100 µM	> 100 µM	> 100 µM	> 100 µM	81 µM	> 100 µM	–	> 100 µM	–
O=c1[nH]c(=O)n(C2CC(O)C(CO)O2)cc1C#Cc1ccc(C(F)(F)F)cc1 (centres undefined)	> 100 µM	> 100 µM	> 100 µM	> 100 µM	–	> 100 µM	> 100 µM	> 100 µM	> 100 µM	> 100 µM
O=C1/C(=C/c2ccccc2S)N=C(c2ccccc2)N1c1ccc2c(c1)Sc1cc(N3C(=O)/C(=C/c4ccccc4S)N=C3c3ccccc3)ccc1N2	46.4 µM	33.5 µM	> 100 µM	48.1 µM	39.1 µM	–	43.1 µM	46.8 µM	41.6 µM	40.5 µM
O=C(Cn1c2ccc(Br)cc2c2nc3ccccc3nc21)NC1CCCCC1	> 100 µM	> 100 µM	> 100 µM	> 100 µM	–	> 100 µM	> 100 µM	> 100 µM	> 100 µM	> 100 µM
Cc1ccc(S(=O)(=O)C(C#N)c2nc3ccccc3nc2-n2cccn2)cc1 (centres undefined)	> 100 µM	> 100 µM	> 100 µM	–	–	–	> 100 µM	> 100 µM	–	> 100 µM
O=C1CCSSCCC(=O)Nc2ccccc2N1	> 100 µM	> 100 µM	> 100 µM	> 100 µM	–	> 100 µM	> 100 µM	> 100 µM	> 100 µM	> 100 µM
O=C1C/C(=C\O)C(=O)c2ccccc2N1	> 100 µM	> 100 µM	> 100 µM	> 100 µM	> 100 µM	> 100 µM	> 100 µM	–	–	> 100 µM
Brc1ccc2c(c1)C1(c3cc(Br)ccc3-2)c2cc(Br)ccc2-c2ccc(Br)cc21	> 100 µM	> 100 µM	> 100 µM	> 100 µM	–	> 100 µM	> 100 µM	> 100 µM	> 100 µM	> 100 µM
NC1=NS(=O)(=O)N=C(N)C1=Cc1ccc([N+](=O)[O-])o1	30.8 µM	30.6 µM	34 µM	33.2 µM	–	31.5 µM	33.3 µM	70 µM	32.7 µM	> 100 µM
C#CC(C)(C)Oc1cc(OC)c2c(=O)c3ccccc3n(C)c2c1	> 100 µM	64.6 µM	> 100 µM	–	> 100 µM	–	68 µM	25 µM	> 100 µM	> 100 µM
[N-]=[N+]=NC1(c2ccccc2)C(=O)Nc2ccccc2C1=O (centres undefined)	> 100 µM	> 100 µM	> 100 µM	> 100 µM	> 100 µM	–	–	> 100 µM	82.4 µM	> 100 µM
O=C1c2cc([N+](=O)[O-])ccc2NC2C(O)c3ccccc3N12 (centres undefined)	64.4 µM	80.7 µM	> 100 µM	> 100 µM	> 100 µM	38.7 µM	65 µM	44.1 µM	–	> 100 µM
CCCCCCCCCCCCCCCCOCC(CC(F)(F)P(=O)(O)O)OC(C)=O (centres undefined)	> 50 µM	> 50 µM	> 50 µM	–	> 50 µM	> 50 µM	–	> 50 µM	> 50 µM	> 50 µM
COC(=O)Cc1c(C2=Nc3ccccc3C2(O)CC(=O)OC)[nH]c2ccccc12 (centres undefined)	> 100 µM	> 100 µM	> 100 µM	> 100 µM	–	> 100 µM	> 100 µM	> 100 µM	> 100 µM	> 100 µM
CC1=NN(c2nc(N)nc(/C(C#N)=C/c3ccncc3)n2)C(C)(C)C1	> 100 µM	> 100 µM	> 100 µM	> 100 µM	> 100 µM	–	> 100 µM	> 100 µM	> 100 µM	> 100 µM
Cc1nc2c(n1Cc1ccc(Cl)cc1)C(=O)c1ccccc1C2=O	> 75 µM	> 75 µM	> 75 µM	> 75 µM	–	> 75 µM	> 75 µM	–	–	> 75 µM
COc1cc(C2SCC(=O)N2NC(=O)c2ccc(NC(C)=O)cc2)cc(OC)c1OC (centres undefined)	> 100 µM	> 100 µM	> 100 µM	–	> 100 µM	–	> 100 µM	> 100 µM	> 100 µM	> 100 µM
COc1cc(S(=O)(=O)Nc2nc(-c3ccc(N4C(=O)/C(=C/c5ccccc5)N=C4c4ccccc4)cc3)cs2)ccc1Cl	> 100 µM	> 100 µM	> 100 µM	> 100 µM	> 100 µM	> 100 µM	> 100 µM	–	> 100 µM	> 100 µM
Oc1ccc(-c2c3c(nc4c2CCc2ccc(Br)cc2-4)-c2cc(Br)ccc2CC3)cc1	37.4 µM	45.2 µM	–	–	43.1 µM	42.7 µM	–	77.3 µM	–	34.2 µM
CC1(C)CC(=O)C(/C=N/c2nc(-c3ccc(Br)cc3)cs2)=C(O)C1	> 100 µM	> 100 µM	> 100 µM	52.4 µM	> 100 µM	–	> 100 µM	–	> 100 µM	> 100 µM
CC(C)(CN1CCCCC1)C(=O)CC(SCCS(=O)(=O)O)c1ccc(Br)cc1 (centres undefined)	2.71 µM	3.1 µM	3.72 µM	–	–	2.9 µM	5.96 µM	4.66 µM	–	3.16 µM
O=C(c1cccs1)N(C(=S)N1CCN(c2ccccc2)CC1)c1ccccc1	> 100 µM	> 100 µM	> 100 µM	> 100 µM	–	> 100 µM	> 100 µM	> 100 µM	> 100 µM	> 100 µM
Cc1ccc(-c2cc(-c3ccc(Cl)cc3)nc(/N=C3\C(=O)N(CN4CCCCC4)c4ccc(Cl)cc43)n2)cc1	44.6 µM	92.5 µM	> 100 µM	53 µM	77.9 µM	27.8 µM	38.8 µM	–	> 100 µM	76.2 µM
